Measured values from patent US20040191168A1, “Tumor cell killing by cell cycle checkpoint abrogation combined with Inhibition of the classical mitogen activated protein (map) kinase pathway” (priority 2000, published 2004).
“And” between values parts separate entries of the source, which are not always exact repeats. Equal values may be shown once.

Key:
[1] = system: MDA-MB-231 cells; test: TUNEL apoptosis in MDA-MB-231 cells; format: cell-based, human; details: MDA-MB-231, 24 h; with 150 nM UCN-01; PD184352 10 μM, U0126 5 μM; FIG. 8A
Description: Terminal Uridyl-Nucleotide End Labeling (TUNEL) for apoptosis.

[2] = system: U937 cells; test: Loss of mitochondrial membrane potential (reduced DiOC6 uptake, flow cytometry) in U937 cells; format: cell-based, human; details: 18 h, PD184352 10 μM, GFX 1 μM, safingol 2 μM, mean ± SD
Procedure: Experimental Format. All of the experiments were performed using logarithmically growing cells (3-5×10^5 cells/ml). Cell suspensions were placed in sterile 25 cm^2 T-flasks (Corning, Corning, N.Y.) and incubated with MEK or PKC inhibitors for 30 min at 37° C. At the end of this period, UCN-01 (or in some cases, caffeine) was added to the suspension, and the flasks were placed in 37° C./5% CO2 incubator at various intervals, generally 18 h. In some studies, the p38 MAP kinase inhibitor SB203580 was added concurrently with MEK inhibitors. After drug treatment, cells were harvested and subjected to further analysis as described below.
Analysis of Mitochondrial Membrane Potential (ΔΨm). Cells 2×10^5 were incubated with 40 nM DiOC6 (Molecular Probes Inc., Eugene, Oreg.) in PBS at 37° C. for 20 min and then analyzed by flow cytometry as described previously (Wang et al., 1999).

[3] = system: U937 cells; test: Soft agar clonogenic assay in U937 cells; format: cell-based, human; details: agents alone, UCN-01 150 nM, PD184352 10 μM, 18 h
Procedure: Clonogenic Assay and Cell Proliferation Assays. Colony formation after drug treatment was evaluated using a soft agar cloning assay as described previously (Blasina et al, 1999). Briefly, cells were washed three times with serum-free RPMI medium. Subsequently, 500 cells/well were mixed with RPMI medium con-taining 20% FBS and 0.3% agar and plated on 12-well plates (three wells/ condition). The plates were then transferred to a 37° C./5% CO2, fully humid-ified incubator. After 10 days of incubation, colonies, consisting of groups 5 of 50 cells, were scored using an Olympus Model CK inverted microscope, and colony formation for each condition was calculated in relation to values obtained for untreated control cells. For cell viability assays, CellTiter 96 AQueous One Solution (Promega, Madison, Wis.) was used according to the manufacturer's instructions, and the absorbance at 490 nm was recorded using a 96-well plate reader (Molecular Devices, Sunnyvale, Calif.).

[4] = system: colon tumor cells; details: mice (Sebolt-Leopold et al., 1999); cited from earlier work
[5] = system: MCF7 cells; details: MCF7, 24 h; with 150 nM UCN-01; PD184352 10 μM, U0126 5 μM; FIG. 8B
Procedure: Terminal Uridyl-Nucleotide End Labeling (TUNEL) for apoptosis. […] Cells were isolated 24 h after irradiation by trypsinizationi followed by centrifugation onto glass slides (cytospin). Terminal Uridyl-Nucleotide End Labeling (TUNEL) was performed on these cells as described previously [Wang et al., 1999; Park et al., 1999]. Randomly selected fields of fixed cells (150 cells per field, n=5 per slide) were counted initially using propidium iodide counter stain, followed by examination and counting of TUNEL positive staining cells of the same field under FITC/fluorescence light.

[6] = system: DU145 cells; test: Colony forming (clonogenic) assay in DU145 cells; format: cell-based, human; details: 25 μM PD98059, 150 nM UCN-01, replated 48 h, ± SEM
Procedure: (§1) Colony forming (clonogenic) assay. Cells were plated 36 h prior to experimentation. Cells were pre-treated with MEK1/2 inhibitor as indicated, 2 h prior to exposure. Cells were irradiated (2 Gy). After a further 48 h, cells were isolated by tryptic digestion and single cell suspensions plated on Linbro® plates at densities of 500 cells/well and 1000 cells/well. Colony formation was defined as a colony of 50 cells or greater, 10 days after plating.

[7] = Phase I and pharmacokinetic studies (Fuse et al., 1999); cited from earlier work
[8] = system: MDA-MB-231 cells; test: Colony forming (clonogenic) assay in MDA-MB-231 cells; format: cell-based, human; details: MDA-MB-231 (MDA), 25 μM PD98059, 150 nM UCN-01, replated 48 h, ± SEM
Procedure: as §1

[9] = system: T47D cells; test: Colony forming (clonogenic) assay in T47D cells; format: cell-based, human; details: mock irradiated, 25 μM PD98059, 150 nM UCN-01, replated 48 h, ± SEM
Procedure: as §1

[10] = system: MCF7 cells; test: Colony forming (clonogenic) assay in MCF7 cells; format: cell-based, human; details: 25 μM PD98059, 150 nM UCN-01, replated 48 h, ± SEM
Procedure: as §1

O=C(NOCC1CC1)c1ccc(F)c(F)c1Nc1ccc(I)cc1Cl [PD184352]
apoptosis in combination with UCN-01 [1]: enhanced apoptosis | "Low" DiOC6 (% cells) [2]: 12.1 ± 0.2% and 14.7 ± 1.0% | reduction of clonogenic survival (colony formation) [3]: 40% | in vivo growth of colon tumor cells [4]: inhibit the in vivo growth of colon tumor cells in mice | apoptosis in combination with UCN-01 [5]: enhanced apoptosis

CN[C@@H]1C[C@H]2O[C@@](C)([C@@H]1OC)n1c3ccccc3c3c4c(c5c6ccccc6n2c5c31)C(=O)N[C@H]4O [UCN-01, 7-hydroxystaurosporine]
clonogenic survival (colonies, normalized to control unirradiated cells = 100%) ([6]; DU145, 2 Gy): 68 ± 2% | clonogenic survival (colonies, normalized to control unirradiated cells = 100%) ([6]; DU145, mock irradiated): 82 ± 4% | reduction of clonogenic survival (colony formation) [3]: very modest effect | plasma half-life [7]: very long plasma half-life | clonogenic survival (colonies, normalized to control unirradiated cells = 100%) ([8]; 2 Gy): 55 ± 2% | clonogenic survival (colonies, normalized to control unirradiated cells = 100%) ([8]; mock irradiated): 97 ± 3% | clonogenic survival (colonies, normalized to control unirradiated cells = 100%) [9]: 103 ± 8% | clonogenic survival (colonies, normalized to control unirradiated cells = 100%) ([10]; MCF7, 2 Gy): 44 ± 3% | clonogenic survival (colonies, normalized to control unirradiated cells = 100%) ([10]; MCF7, mock irradiated): 69 ± 6%
